How the values were obtained:
[1] = target: T1, recombinant BRD4 BD1 (Homo sapiens, UniProt O60885); test: Competitive fluorescence-polarization (FP) binding assay, BRD4 BD1; details: competitive FP assay; protein 10 nM, probe […]; read-out: IC50 (nM) BRD4 BD1; further: probe 1.5 nM
T1 construct: for recombinant BRD4 BD1 and BRD4 BD2 proteins
Outline: (§1)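 Buffer: 100 mM potassium phosphate, pH 6.5, 0.01% Triton X-100; compounds added in buffer with 40% ethylene glycol to preformed complex of fluorescent probe with BRD4 BD1 (10 nM final) or BD2 (6 nM final). After 30 min at room temperature, polarization read. IC50 from nonlinear fits of competition curves, with Ki.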

[2] = target: T2, recombinant BRD4 BD2 (Homo sapiens, UniProt O60885); test: Competitive fluorescence-polarization (FP) binding assay, BRD4 BD2; details: competitive FP assay; protein 6 nM, probe […]; read-out: IC50 (nM) BRD4 BD2; further: probe 1.5 nM
T2 construct: for recombinant BRD4 BD1 and BRD4 BD2 proteins
Outline: as §1

[3] = test system: MOLM-13; test: Cell growth inhibition, MOLM-13 leukemia cells (CellTiter-Glo); assay type: cell-based; details: Homo sapiens, MOLM-13, 96 h; 4 days; read-out: IC50 (nM) MOLM-13 Cell Line (CellTiter-Glo assay)
Outline: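 Luminescent ATP-based viability (CellTiter-Glo, 10-20 min at room temperature) in compound-treated MOLM-13 cells; the half-maximal inhibitory concentration was calculated from the readout.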

[4] = test system: MDA-MB-436; test: Cell growth inhibition, MDA-MB-436 breast cancer cells (WST-8); assay type: cell-based; details: Homo sapiens, MDA-MB-436, 96 h; 4 days; read-out: IC50 (nM) MDA-MB-436 Cell Line (WST assay)
Outline: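 IC50 was computed from WST-8-based cell counting in MDA-MB-436 cells, with absorbance read at 450 nm.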

| SMILES | IC50 [1] [nM] | IC50 [2] [nM] | IC50 [3] [nM] | IC50 [4] [nM] |
| --- | --- | --- | --- | --- |
| COc1cc2c(cc1-c1c(C)noc1C)[nH]c1nc(C)nc(Nc3c(C)c(C)nn3C(C)C)c12 [Cpd. No. 81, 7-(3,5-dimethylisoxazol-4-yl)-N-(1-isopropyl-3,4-dimethyl-1H-pyrazol-5-yl)-6-methoxy-2-methyl-9H-pyrimido[4,5-b]indol-4-amine] | 5.1 | 19.6 | 22.9 | 67 |
| COc1cc2c(cc1-c1c(C)noc1C)[nH]c1nc(C)nc(Nc3cncc(C)c3)c12 [Cpd. No. 108, 7-(3,5-dimethylisoxazol-4-yl)-6-methoxy-2-methyl-N-(5-methylpyridin-3-yl)-9H-pyrimido[4,5-b]indol-4-amine] | 58 | 21 | 19 | 181 |
| COc1cc2c(cc1-c1c(C)noc1C)[nH]c1nc(C)nc(Oc3ccnc4ccccc34)c12 [Cpd. No. 104, 4-(6-methoxy-2-methyl-4-(quinolin-4-yloxy)-9H-pyrimido[4,5-b]indol-7-yl)-3,5-dimethylisoxazole] | > 1000 | 810 | 603 | 3.4 |
| COc1cc2c(cc1-c1c(C)noc1C)[nH]c1nc(C)nc(Nc3c(C)cnn3C)c12 [Cpd. No. 76, N-(1,4-dimethyl-1H-pyrazol-5-yl)-7-(3,5-dimethylisoxazol-4-yl)-6-methoxy-2-methyl-9H-pyrimido[4,5-b]indol-4-amine] | 29.4 | 23.7 | 117 | 156 |
| COc1cc2c(cc1-c1c(C)noc1C)[nH]c1nc(C)nc(Nc3cccc(Cl)c3)c12 [Cpd. No. 97, N-(3-chlorophenyl)-7-(3,5-dimethylisoxazol-4-yl)-6-methoxy-2-methyl-9H-pyrimido[4,5-b]indol-4-amine] | 34 | 8 | 43 | 180 |
| COc1cc2c(cc1-c1c(C)noc1C)[nH]c1nc(C)nc(Nc3nn(C)c4cc(F)ccc34)c12 [Cpd. No. 59, 7-(3,5-Dimethylisoxazol-4-yl)-N-(6-fluoro-1-methyl-1H-indazol-3-yl)-6-methoxy-2-methyl-9H-pyrimido[4,5-b]indol-4-amine] | 90.5 | 174 | 401 | 535 |
| COc1cc2c(cc1-c1c(C)noc1C)[nH]c1nc(C)nc(Nc3cc(C(F)(F)F)nn3C)c12 [Cpd. No. 21, 7-(3,5-Dimethylisoxazol-4-yl)-6-methoxy-2-methyl-N-(1-methyl-3-(trifluoromethyl)-1H-pyrazol-5-yl)-9H-pyrimido[4,5-b]indol-4-amine] | 13.3 | 34.6 | 21.9 | 52.7 |
| COc1cc2c(cc1-c1c(C)noc1C)[nH]c1nc(C)nc(Nc3cc(C)ccn3)c12 [Cpd. No. 110, 7-(3,5-dimethylisoxazol-4-yl)-6-methoxy-2-methyl-N-(4-methylpyridin-2-yl)-9H-pyrimido[4,5-b]indol-4-amine] | 73 | 33 | 16 | 354 |
| COc1cc2c(cc1-c1c(C)noc1C)[nH]c1nc(C)nc(Nc3c(C)nn(C)c3C)c12 [Cpd. No. 35, 7-(3,5-dimethylisoxazol-4-yl)-6-methoxy-2-methyl-N-(1,3,5-trimethyl-1H-pyrazol-4-yl)-9H-pyrimido[4,5-b]indol-4-amine] | 20.4 | 42.9 | 38.9 | 88.9 |
| COc1cc2c(cc1-c1c(C)noc1C)[nH]c1nc(C)nc(Nc3[nH]ncc3C(C)C)c12 [Cpd. No. 32, 7-(3,5-dimethylisoxazol-4-yl)-N-(4-isopropyl-1H-pyrazol-5-yl)-6-methoxy-2-methyl-9H-pyrimido[4,5-b]indol-4-amine] | 26.5 | 39.4 | 40.9 | 155 |
| COc1cc2c(cc1-c1c(C)noc1C)[nH]c1nc(C)nc(Nc3c4c(nn3C)CCC4)c12 [Cpd. No. 122, 7-(3,5-Dimethylisoxazol-4-yl)-6-methoxy-2-methyl-N-(2-methyl-2,4,5,6-tetrahydrocyclopenta-[c]pyrazol-3-yl)-9H-pyrimido[4,5-b]indol-4-amine] | 4.3 | 2.3 | 6 | 7.8 |
| COc1cc2c(cc1-c1c(C)noc1C)[nH]c1nc(C(C)C)nc(Nc3nn(C)c4ccccc34)c12 [Cpd. No. 18, 7-(3,5-Dimethylisoxazol-4-yl)-2-isopropyl-6-methoxy-N-(1-methyl-1H-indazol-3-yl)-9H-pyrimido[4,5-b]indol-4-amine] | 211 | 1160 | 86.2 | 141 |
| COc1cc2c(cc1-c1c(C)noc1C)[nH]c1nc(C)nc(Nc3cc(C(F)(F)F)nn3C(C)C)c12 [Cpd. No. 22, 7-(3,5-Dimethylisoxazol-4-yl)-N-(1-isopropyl-3-(trifluoromethyl)-1H-pyrazol-5-yl)-6-methoxy-2-methyl-9H-pyrimido[4,5-b]indol-4-amine] | 49.1 | 40.6 | 77.5 | 84.8 |

The remaining lines, values ahead:

| IC50 [1] [nM] | IC50 [2] [nM] | IC50 [3] [nM] | IC50 [4] [nM] | SMILES |
| --- | --- | --- | --- | --- |
| 105 | 33 | 192 | 740 | COc1cc2c(cc1-c1c(C)noc1C)[nH]c1nc(C)nc(Nc3cc(Cl)ccc3F)c12 [Cpd. No. 224, N-(5-chloro-2-fluorophenyl)-7-(3,5-dimethylisoxazol-4-yl)-6-methoxy-2-methyl-9H-pyrimido[4,5-b]indol-4-amine] |
| 10.6 | 5.6 | 19 | 34 | COc1cc2c(cc1-c1c(C)noc1C)[nH]c1nc(C)nc(Nc3cc(C4CC4)nn3C3CC3)c12 [Cpd. No. 152, N-(1,3-Dicyclopropyl-1H-pyrazol-5-yl)-7-(3,5-dimethylisoxazol-4-yl)-6-methoxy-2-methyl-9H-pyrimido[4,5-b]indol-4-amine] |
| 7.9 | 13.2 | 78.6 | 110 | COc1cc2c(cc1-c1c(C)noc1C)[nH]c1nc(C)nc(Nc3sc(C)nc3C)c12 [Cpd. No. 177, N-(7-(3,5-dimethylisoxazol-4-yl)-6-methoxy-2-methyl-9H-pyrimido[4,5-b]indol-4-yl)-2,4-dimethylthiazol-5-amine] |
| 219 | 365 | 912 | 849 | COc1cc2c(cc1-c1c(C)noc1C)[nH]c1nc(C)nc(Nc3onc(C)c3C)c12 [Cpd. No. 219, N-(7-(3,5-dimethylisoxazol-4-yl)-6-methoxy-2-methyl-9H-pyrimido[4,5-b]indol-4-yl)-3,4-dimethylisoxazol-5-amine] |
| 7.9 | 5 | 3.4 | 20.4 | COc1cc2c(cc1-c1c(C)noc1C)[nH]c1nc(C)nc(Nc3c4c(nn3C3CC3)CCC4)c12 [Cpd. No. 148, N-(2-Cyclopropyl-2,4,5,6-tetrahydrocyclopenta[c]pyrazol-3-yl)-7-(3,5-dimethylisoxazol-4-yl)-6-methoxy-2-methyl-9H-pyrimido[4,5-b]indol-4-amine] |
| 16.6 | 14.4 | 29.1 | 75.1 | COc1cc2c(cc1-c1c(C)noc1C)[nH]c1nc(C)nc(Nc3cn(C)nc3C3CC3)c12 [Cpd. No. 195, N-(3-cyclopropyl-1-methyl-1H-pyrazol-4-yl)-7-(3,5-dimethylisoxazol-4-yl)-6-methoxy-2-methyl-9H-pyrimido[4,5-b]indol-4-amine] |
| 39.3 | 95 | 120 | 210 | COc1cc2c(cc1-c1c(C)noc1C)[nH]c1nc(C)nc(Nc3c(C4CC4)c(C)nn3C)c12 [Cpd. No. 140, N-(4-Cyclopropyl-1,3-dimethyl-1H-pyrazol-5-yl)-7-(3,5-dimethylisoxazol-4-yl)-6-methoxy-2-methyl-9H-pyrimido[4,5-b]indol-4-amine] |
| 119 | 161 | 504 | 1420 | COc1cc2c(cc1-c1c(C)noc1C)[nH]c1nc(C)nc(Nc3cn(C)cn3)c12 [Cpd. No. 166, 7-(3,5-dimethylisoxazol-4-yl)-6-methoxy-2-methyl-N-(1-methyl-1H-imidazol-4-yl)-9H-pyrimido[4,5-b]indol-4-amine] |
| 15.6 | 23.6 | 34.8 | 98 | CCc1nn(C)cc1Nc1nc(C)nc2[nH]c3cc(-c4c(C)noc4C)c(OC)cc3c12 [Cpd. No. 182, 7-(3,5-dimethylisoxazol-4-yl)-N-(3-ethyl-1-methyl-1H-pyrazol-4-yl)-6-methoxy-2-methyl-9H-pyrimido[4,5-b]indol-4-amine] |
| 3.6 | 2.7 | 8.1 | 47.5 | COc1cc2c(cc1-c1c(C)noc1C)[nH]c1nc(C)nc(Nc3cn(C)nc3C(C)(C)C)c12 [Cpd. No. 193, N-(3-(tert-butyl)-1-methyl-1H-pyrazol-4-yl)-7-(3,5-dimethylisoxazol-4-yl)-6-methoxy-2-methyl-9H-pyrimido[4,5-b]indol-4-amine] |

From patent US9580430B2, “9H-pyrimido[4,5-B]indoles and related analogs as BET bromodomain inhibitors” (THE REGENTS OF THE UNIVERSITY OF MICHIGAN, priority 2014, dated 2017)
